In US10898535B2, “Composition for inhibiting and preventing myopathy, containing bean leaf extract as active ingredient” (AMOREPACIFIC CORPORATION, priority 2015, dated 2021):

Tests used:
[1] = tested on: C2C12 (mouse myoblast); experiment: Ability to recover cell activity of myocyte in dexamethasone-induced muscle loss model (CCK8, absorbance 450 nm); assay type: cell-based; settings: differentiated C2C12, dexamethasone 1 μM, dexibuprofen 100 μM, 24 hours, control group = dexamethasone only
Protocol: In the present Experimental Example 1, the experiments were conducted to evaluate the recovery efficacy of the bean leaf extract on the decrease in cell activity of myocyte in a model of muscle loss induced by Dexamethasone. Dexamethasone is a kind of glucocorticoid, and increases expression of the Atrogin1 and Murf1 in vitro and in vivo to accelerate proteolytic degradation, thereby resulting in decrease in skeletal muscle, induction of myocyte death, and reduction of cell activity. Accordingly, an experimental model of dexamethasone to myocyte is a useful model for evaluating the function of sarcopenia and is widely used. The C2C12 (mouse myoblast) used in Experimental Example 1 was purchased from American Type Culture Collection (Manassas, Va., USA) and the cells were cultured in DMEM containing 10% FBS, 100 units/mL Penicillin, and […] streptomycin. Specific experimental methods are as follows. […] After 24 hours of treatment with the material, the medium was replaced with medium containing 10% solution of CCK8 […], and allowed to react for 10 minutes, and the cell activity was measured by measuring the absorbance at 450 nm. To increase the reliability, each sample was repeatedly measured three times to derive the average value.

[2] = tested on: Atrogin1 gene (mRNA); experiment: Inhibition of expression of Atrogin1 gene (mRNA) in dexamethasone-induced muscle loss model (PCR); assay type: cell-based, mouse; settings: differentiated C2C12, dexamethasone 1 μM, dexibuprofen 100 μM, 6 hours, control group = dexamethasone only
Protocol: (§1) In the present Experimental Example 2, experiments were conducted to evaluate the inhibitory efficacy of the bean leaf extract against the overexpression of Atrogin1 and Murf1 mRNA in the muscle loss induced model by dexamethasone. The experimental group, the control group and the comparison group of Experimental Example 2 were prepared in the same manner as Experimental Example 1. Provided that, when 6 hours had elapsed since the treatment with each final material, RNA was extracted with trizol reagent (TRIzol agent, Invitrogen) after washing twice with cold saline, […] Expression patterns of each gene were measured using primers and probes (Applied biosystems) previously designed for genes of the synthesized cDNA and Atrogin1, Murf1, and GAPD. At this time, polymerase chain reaction (PCR) and analysis were performed using a Rotor-Gene 3000 system (Corbett Research, Sydney, Australia). To increase the reliability, each sample was repeatedly measured three times to derive the average value.

[3] = tested on: Murf1 gene (mRNA); experiment: Inhibition of expression of Murf1 gene (mRNA) in dexamethasone-induced muscle loss model (PCR); assay type: cell-based, mouse; settings: differentiated C2C12, dexamethasone 1 μM, dexibuprofen 100 μM, 6 hours, control group = dexamethasone only
Protocol: as §1

**Q.** Which results are given for `CC(C)Cc1ccc([C@H](C)C(=O)O)cc1` [Dexibuprofen, dexibuprofen]?
**A.** Change in cell activity relative to control group (%) [1]: −4.1%; Change in cell activity relative to control group (%) ([1]; listed as dexibuprofen): no recovery of myocyte activity is observed; Change in Atrogin1 gene expression relative to control group (%) [2]: −2.6%; Change in Atrogin1 gene expression relative to control group (%) ([2]; listed as dexibuprofen): insignificant; Change in Murf1 gene expression relative to control group (%) [3]: −3.3%; Change in Murf1 gene expression relative to control group (%) ([3]; listed as dexibuprofen): insignificant
